Measured values reported in patent publication US7635722B1, “Chemical induced intracellular hyperthermia” (priority 1998, dated 2009).

Assays:
Format in all cases: in vivo, human
HIV = test: DNP hyperthermia, HIV disease (Example 2)
Procedure: Pretreatment protocol: all medications were stopped 2 weeks prior to treatment. The patient refused taking diazepam, placement of a Foley catheter and oxygen face mask. They dressed themself into a dry cold water immersion suit (Stearns, ISS-590I, Universal Adult) designed to prevent heat loss and modified for easy placement of physiologic monitors. Equipment for measurement of heart rate, temperature, carbon dioxide production and Kcal of heat produced were conducted as outlined in Example 1. An oral breathing tube was used to measure V02 from room air. Urine output was measured when the patient voluntarily urinated through a “Texas” catheter (superficial condom tightly fitted around the head of the penis with tubing connected to urine collection bag). The patient was informed that hyperthermia would be administered as tolerated by their stamina and monitored clinical parameters, not to exceed 5 hours, on a daily or every other day basis, for a total of 5 sessions.
Treatment procedure: Baseline reading for 5 minutes established an average V02 of 300 cc/min. An initial dose of 2 mg/kg of DNP was administered over a 2 minute period. V02 increased and stabilized at 15 minutes at 340-380 cc/min. An additional 2 mg/kg DNP infusion was given, the V02 increased and stabilized at 610-630 cc/min. […] Norepinephrine bitartrate (Levophed) was given IV drip at a dose of 1 microgram/min. and adjusted to maintain blood pressure at 130/80. Approximately 1 minute after initiating the vasopressor, heart rate increased from 90 to 100 and V02 to 0.85 liters/min. […] V02 was maintained at 1.0 liters/min. by lowering or increasing the dose of norepinephrine. An additional infusion of 1 mg/kg DNP was given at hour 4 to correct a dropping V02. On occasions when the core temperature increased above 41.6° C., a lower extremity was exposed for evaporative heat loss. […] The protocol was repeated consecutively for 5 days without the additional use of vasopressors.

[1] = system: peritoneal carcinomatosis, undifferentiated adenocarcinoma; test: DNP with vasopressor and chemotherapy, peritoneal carcinomatosis (Example 4)
Description: It was elected to treat the patient with hyperthermochemotherapy. Treatment consisted of DNP, and combination chemotherapy with carboplatin, mitomycin, and doxifluridine. An α-1 adrenergic receptor agonist was used to minimize peripheral vascular dilation and heat loss.
Pretreatment protocol: the patient was transfused with three units of packed red blood cells. A Foley catheter was inserted on each day of treatment. They were covered in a water soaked blanket containing a polyethylene lining. A shower cap with towels was used to prevent heat loss from the head. Intravenous lines were placed into both arms with 19 gauge intracaths. EKG, heart rate, rectal thermistor, and V02 monitors were attached. Oxygen supplemented facemask and equipment was attached and data monitored as previously described under Example 1.
Treatment protocol: the patient was given chemotherapy […]. The total doses of carboplatin, and mitomycin were 450 mg and 24 mg IV respectively on day 1 and last day of week 6. Doxifluridine, 600 mg, was orally administered every day for 5 days and repeated the last 5 days of week 6. On the day of DNP infusion, baseline recordings were established for 10 minutes. Mephenteramine sulfate, 30 mg, was given by intramuscular injection. Ten minutes later their heart rate increased to 96 and […] V02 increased from 250 to 320 cc/min. V02, heart rate and blood pressure stabilized after 20 minutes and they were given an initial dose of 1 mg/kg DNP. Additional 0.5 mg/kg infusions of DNP were administered in 3 successive infusions spaced 20 minutes apart. […] The DNP treatment protocol was repeated every fourth day for a period of 6 weeks.

heat shock protein = test: DNP induction of autologous heat shock proteins; conditions: after cessation of DNP
Procedure: DNP would be given orally at doses to increase the V02 from 1.5 to 5 times above normal per day for a period of 2-6 days or, as an infusion at doses that would increase V02 and core body temperatures no greater than 39° C. for periods of 5 to 6 hours or, intravenous doses of DNP alone, with vasopressors, or other short acting metabolic stimulators, that would increase V02 to equivalent core temperatures of 40-41° C. for periods of 15-30 minutes. Within 8-48 hours after cessation of DNP, the patient would have maximum heat shock protein production. Such DNP induced stress would improve clinical outcome by induction of cellular heat shock protein synthesis with protection of the patient's, organs, tissues and cells from subsequent ischemic surgical or traumatic procedures.

O=[N+]([O-])c1ccc(O)c([N+](=O)[O-])c1 [DNP, 2,4-dinitrophenol]
lymphadenopathy (HIV; 2 weeks post-treatment): resolved
HIV RNA (HIV; 4, 6 and 12 weeks post-treatment): non-detectable
CD4+ T cell lymphocyte counts (HIV; by week 4, stable at week 6 and 12, pretreatment 250/mm^3): 380-420 cells/mm^3
viral load (HIV; immediately after treatment day 5, pretreatment 400,000 copies/ml): 50,000 HIV-RNA copies/ml
magnetic resonance imaging and echo of the abdomen ([1]; after combined treatments): complete resolution of peritoneal metastasis
ascites ([1]; end of the sixth week, DNP with carboplatin, mitomycin, doxifluridine): resolved
survival ([1]; nine and a half months after treatment): alive without any evidence of tumor reoccurrence
serum levels of amylase and all tumor markers ([1]; week 6, combined treatments): normal at week 6
time to maximum heat shock protein production (heat shock protein): 8 to 48 h
